Source: ChEMBL document CHEMBL5537174, “Discovery of Potent SOS1 PROTACs with Effective Antitumor Activities against NCI-H358 Tumor Cells In Vitro/In Vivo” (J Med Chem, 2024)

Experiments:
[1] = system: NCI-H358; test: Antiproliferative activity against human NCI-H358 cells assessed as inhibition of cell proliferation incubated for 7 days by celltiter-glo 3D assay; assay type: functional, cell-based; conditions: NCI-H358, 168 h
[2] = molecular target: Protein cereblon/Son of sevenless homolog 1 (Homo sapiens, UniProt Q07889+Q96SW2); test: PROTAC activity at CRBN/SOS1 in human NCI-H358 cells assessed as induction of SOS1 degradation incubated for 6 hrs by Western blotting analysis; assay type: cell-based
[3] = molecular target: SOS1-KRAS (Homo sapiens, UniProt Q07889); test: Inhibition of SOS1/KRAS G12C mutant (unknown origin); assay type: protein-complex assay
[4] = Toxicity in BALB/c nude mouse xenografted with human NCI-H358 cells assessed as body weight loss at 30 mg/kg, ip measured every 3 days for 21 days; assay type: organism-based; conditions: in vivo, 504 h, time 21 day
[5] = system: NCI-H358; test: Antiproliferative activity against human NCI-H358 cells assessed as reduction in cell viability
[6] = system: DLD-1; test: Antiproliferative activity against human DLD-1 cells harboring G13D mutant assessed as inhibition of cell proliferation incubated for 7 days by celltiter-glo 3D assay; assay type: functional, cell-based; conditions: DLD-1, 168 h
[7] = Antiproliferative activity against human GP2d cells harboring G12D mutant assessed as inhibition of cell proliferation incubated for 7 days by celltiter-glo 3D assay; assay type: functional, cell-based; conditions: 168 h
[8] = system: NCI-H358; test: Antiproliferative activity against human NCI-H358 cells harboring G12C mutant assessed as inhibition of cell proliferation incubated for 7 days by celltiter-glo 3D assay; assay type: functional, cell-based; conditions: NCI-H358, 168 h
[9] = system: NCI-H358; test: Antitumor activity against human NCI-H358 cells xenografted in BALB/c nude mouse assessed as tumor growth inhibition at 30 mg/kg, ip measured twice daily for 21 days; assay type: functional; conditions: NCI-H358, 504 h, time 21 day, read-out: TGI
[10] = system: NCI-H441; test: Antiproliferative activity against human NCI-H441 cells harboring G12V mutant assessed as inhibition of cell proliferation incubated for 7 days by celltiter-glo 3D assay; assay type: functional, cell-based; conditions: NCI-H441, 168 h

Chain of Protein cereblon/Son of sevenless homolog 1 (Q07889 whole entry): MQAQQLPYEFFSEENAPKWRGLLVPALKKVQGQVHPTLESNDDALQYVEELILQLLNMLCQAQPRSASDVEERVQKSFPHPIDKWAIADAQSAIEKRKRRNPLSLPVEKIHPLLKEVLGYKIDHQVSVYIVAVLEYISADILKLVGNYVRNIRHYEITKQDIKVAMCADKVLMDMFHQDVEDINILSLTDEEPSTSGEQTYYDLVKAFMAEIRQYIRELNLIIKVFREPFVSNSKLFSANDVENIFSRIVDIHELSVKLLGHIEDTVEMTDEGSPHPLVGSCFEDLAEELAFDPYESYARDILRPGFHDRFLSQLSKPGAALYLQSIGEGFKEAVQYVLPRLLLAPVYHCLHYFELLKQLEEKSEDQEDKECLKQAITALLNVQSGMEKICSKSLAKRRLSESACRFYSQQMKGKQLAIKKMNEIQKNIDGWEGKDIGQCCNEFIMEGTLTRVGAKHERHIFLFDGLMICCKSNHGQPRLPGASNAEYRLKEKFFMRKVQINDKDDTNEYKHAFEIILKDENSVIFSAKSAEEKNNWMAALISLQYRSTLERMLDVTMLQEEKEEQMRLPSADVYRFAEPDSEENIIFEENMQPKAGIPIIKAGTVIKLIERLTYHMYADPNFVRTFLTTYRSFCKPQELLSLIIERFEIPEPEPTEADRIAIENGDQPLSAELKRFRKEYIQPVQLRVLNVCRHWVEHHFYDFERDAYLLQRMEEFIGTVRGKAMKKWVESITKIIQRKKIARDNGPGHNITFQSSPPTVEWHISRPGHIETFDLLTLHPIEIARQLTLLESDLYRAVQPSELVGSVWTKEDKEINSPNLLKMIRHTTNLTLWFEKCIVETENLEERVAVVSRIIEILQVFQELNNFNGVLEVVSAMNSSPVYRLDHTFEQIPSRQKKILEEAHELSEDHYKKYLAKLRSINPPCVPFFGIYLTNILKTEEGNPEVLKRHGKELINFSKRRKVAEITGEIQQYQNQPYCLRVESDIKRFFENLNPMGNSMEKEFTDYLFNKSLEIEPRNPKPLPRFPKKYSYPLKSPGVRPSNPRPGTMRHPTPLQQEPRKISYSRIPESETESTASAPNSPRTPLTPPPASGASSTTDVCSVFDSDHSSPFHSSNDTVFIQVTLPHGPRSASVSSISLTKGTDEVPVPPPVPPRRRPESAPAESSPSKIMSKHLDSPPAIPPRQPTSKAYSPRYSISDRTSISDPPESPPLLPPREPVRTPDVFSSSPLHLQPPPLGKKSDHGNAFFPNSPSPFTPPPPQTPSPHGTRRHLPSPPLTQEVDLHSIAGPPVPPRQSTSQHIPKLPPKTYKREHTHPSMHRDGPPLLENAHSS
Chain of Protein cereblon/Son of sevenless homolog 1 (Q96SW2 whole entry): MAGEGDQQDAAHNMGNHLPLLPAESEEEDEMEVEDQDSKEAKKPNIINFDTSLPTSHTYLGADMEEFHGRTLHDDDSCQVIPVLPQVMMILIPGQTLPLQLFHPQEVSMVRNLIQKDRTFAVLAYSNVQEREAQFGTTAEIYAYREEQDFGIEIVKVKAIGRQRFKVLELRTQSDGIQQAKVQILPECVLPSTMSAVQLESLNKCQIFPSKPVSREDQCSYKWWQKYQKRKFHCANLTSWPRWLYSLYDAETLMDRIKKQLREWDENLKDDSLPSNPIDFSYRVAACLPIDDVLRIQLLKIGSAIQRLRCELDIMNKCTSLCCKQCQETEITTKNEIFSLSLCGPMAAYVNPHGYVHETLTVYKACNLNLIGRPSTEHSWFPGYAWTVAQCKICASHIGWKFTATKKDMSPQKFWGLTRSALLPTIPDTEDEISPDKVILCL
Chain of SOS1-KRAS (Q07889 whole entry, looked up, stated change not applied): as the sequence (Q07889 whole entry) above

IC50 [1] [nM] | SMILES | also measured
927 | COc1cc2nc(C)nc(N[C@H](C)c3cc(N)cc(C(F)(F)F)c3)c2cc1OCC1(CN(C)C(=O)CCC(=O)N(C)C2CCC(Nc3cccc4c3C(=O)N(C3CCC(=O)NC3=O)C4=O)CC2)CC1 (stereo partly specified) | 
75 | COc1cc2nc(C)nc(N[C@H](C)c3cc(N)cc(C(F)(F)F)c3)c2cc1OCC1(CN(C)C(=O)CCCCCCOc2cccc3c2C(=O)N(C2CCC(=O)NC2=O)C3=O)CC1 (stereo partly specified) | 
1080 | COc1cc2nc(C)nc(N[C@H](C)c3cc(N)cc(C(F)(F)F)c3)c2cc1OCC1(CN(C)C(=O)CN2CCC(CN3CCN(c4ccc5c(c4)C(=O)N(C4CCC(=O)NC4=O)C5=O)CC3)CC2)CC1 (stereo partly specified) | 
1660 | COc1cc2nc(C)nc(N[C@H](C)c3cc(N)cc(C(F)(F)F)c3)c2cc1OCC1(CN(C)C(=O)CCOCCNc2cccc3c2C(=O)N(C2CCC(=O)NC2=O)C3=O)CC1 (stereo partly specified) | 
799 | COc1cc2nc(C)nc(N[C@H](C)c3cc(N)cc(C(F)(F)F)c3)c2cc1OCC1(CN(C)C(=O)CCCCCCNc2ccc3c(c2)C(=O)N(C2CCC(=O)NC2=O)C3=O)CC1 (stereo partly specified) | 
23 | COc1cc2nc(C)nc(N[C@H](C)c3cc(N)cc(C(F)(F)F)c3)c2cc1OCC1(CN(C)C(=O)CCCCCCNc2ccc(F)c3c2C(=O)N(C2CCC(=O)NC2=O)C3=O)CC1 (stereo partly specified) | DC50 ([2]; read-out: DC50): 63 nM
 | O=C(O)CCCCCCNc1cccc2c1C(=O)N(C1CCC(=O)NC1=O)C2=O (stereo unspecified) | DC50 [2]: Not Active
334 | COc1cc2nc(C)nc(N[C@H](C)c3cc(N)cc(C(F)(F)F)c3)c2cc1OCC1(CN(C)C(=O)CCCCCNc2cccc3c2C(=O)N(C2CCC(=O)NC2=O)C3=O)CC1 (stereo partly specified) | 
4180 | COc1cc2nc(C)nc(N[C@H](C)c3cc(N)cc(C(F)(F)F)c3)c2cc1OCC1(CN(C)C(=O)CCCCCCNc2ccc3c(c2F)C(=O)N(C2CCC(=O)NC2=O)C3=O)CC1 (stereo partly specified) | 
1200 | COc1cc2nc(C)nc(N[C@H](C)c3cc(N)cc(C(F)(F)F)c3)c2cc1OCC1(CN(C)C(=O)CN2CCN(C3CN(c4ccc5c(c4)C(=O)N(C4CCC(=O)NC4=O)C5=O)C3)CC2)CC1 (stereo partly specified) | 
1380 | COc1cc2nc(C)nc(N[C@H](C)c3cc(N)cc(C(F)(F)F)c3)c2cc1OCC1(CN(C)C(=O)COCCNc2cccc3c2C(=O)N(C2CCC(=O)NC2=O)C3=O)CC1 (stereo partly specified) | 
1370 | COc1cc2nc(C)nc(N[C@H](C)c3cc(N)cc(C(F)(F)F)c3)c2cc1OCC1(CN(C)C(=O)C2CCC(N3CCN(c4ccc5c(c4)C(=O)N(C4CCC(=O)NC4=O)C5=O)CC3)CC2)CC1 (stereo partly specified) | 
1380 | COc1cc2nc(C)nc(N[C@H](C)c3cc(N)cc(C(F)(F)F)c3)c2cc1OCC1(CN(C)C(=O)CCCCCCNc2cccc3c2C(=O)N(C2CCC(=O)N(C)C2=O)C3=O)CC1 (stereo partly specified) | DC50 [2]: Not Active
1140 | COc1cc2nc(C)nc(N[C@H](C)c3cc(N)cc(C(F)(F)F)c3)c2cc1OCC1(CN(C)C(=O)CCOCCC#Cc2cccc3c2C(=O)N(C2CCC(=O)NC2=O)C3=O)CC1 (stereo partly specified) | 
513 | COc1cc2nc(C)nc(N[C@H](C)c3cc(N)cc(C(F)(F)F)c3)c2cc1OCC1(CN(C)C(=O)C2CCC(NC3CCN(c4ccc5c(c4)C(=O)N(C4CCC(=O)NC4=O)C5=O)CC3)CC2)CC1 (stereo partly specified) | 
591 | COc1cc2nc(C)nc(N[C@H](C)c3cc(N)cc(C(F)(F)F)c3)c2cc1OCC1(CN(C)C(=O)CCCCCC#Cc2cccc3c2C(=O)N(C2CCC(=O)NC2=O)C3=O)CC1 (stereo partly specified) | 
220 | COc1cc2nc(C)nc(N[C@H](C)c3cc(N)cc(C(F)(F)C(C)(C)O)c3)c2cc1OCC1(CN(C)C(=O)CCCCCCNc2cccc3c2C(=O)N(C2CCC(=O)NC2=O)C3=O)CC1 (stereo partly specified) | 
684 | COc1cc2nc(C)nc(N[C@H](C)c3cc(N)cc(C(F)(F)F)c3)c2cc1OCC1(CN(C)C(=O)C2CCN(C3CCN(c4ccc5c(c4)C(=O)N(C4CCC(=O)NC4=O)C5=O)CC3)CC2)CC1 (stereo partly specified) | 
358 | COc1cc2nc(C)nc(N[C@H](C)c3cccc(C(F)(F)C(C)(C)O)c3F)c2cc1OCC1(CN(C)C(=O)CCCCCCNc2cccc3c2C(=O)N(C2CCC(=O)NC2=O)C3=O)CC1 (stereo partly specified) | 
2890 | COc1cc2nc(C)nc(N[C@H](C)c3cc(N)cc(C(F)(F)F)c3)c2cc1OCC1(CN(C)C(=O)CCNc2cccc3c2C(=O)N(C2CCC(=O)NC2=O)C3=O)CC1 (stereo partly specified) | 

IC50 [1] [nM] | SMILES | also measured
2050 | COc1cc2nc(C)nc(N[C@H](C)c3cccc(C#N)c3C)c2cc1OCC1(CN(C)C(=O)CCCCCCNc2cccc3c2C(=O)N(C2CCC(=O)NC2=O)C3=O)CC1 (stereo partly specified) | 
18 | COc1cc2nc(C)nc(N[C@H](C)c3cc(N)cc(C(F)(F)F)c3)c2cc1OCC1(CN(C)C(=O)C2CCN(CCNc3cccc4c3C(=O)N(C3CCC(=O)NC3=O)C4=O)CC2)CC1 (stereo partly specified) | DC50 ([2]; read-out: DC50): 44 nM
114 | COc1cc2nc(C)nc(N[C@H](C)c3cc(N)cc(C(F)(F)F)c3)c2cc1OCC1(CN(C)C(=O)COCCCCNc2cccc3c2C(=O)N(C2CCC(=O)NC2=O)C3=O)CC1 (stereo partly specified) | 
814 | COc1cc2nc(C)nc(N[C@H](C)c3cc(N)cc(C(F)(F)F)c3)c2cc1OCC1(CN(C)C(=O)CCCN(C)C2CCC(Nc3cccc4c3C(=O)N(C3CCC(=O)NC3=O)C4=O)CC2)CC1 (stereo partly specified) | 
86 | COc1cc2nc(C)nc(N[C@H](C)c3cc(N)cc(C(F)(F)F)c3)c2cc1OCC1(CN(C)C(=O)CCCCNc2cccc3c2C(=O)N(C2CCC(=O)NC2=O)C3=O)CC1 (stereo partly specified) | 
733 | COc1cc2nc(C)nc(N[C@H](C)c3cc(N)cc(C(F)(F)F)c3)c2cc1OCC1(CN(C)C(=O)C2CCC(OC3CCN(c4ccc5c(c4)C(=O)N(C4CCC(=O)NC4=O)C5=O)CC3)CC2)CC1 (stereo partly specified) | 
16 | COc1cc2nc(C)nc(N[C@H](C)c3cc(N)cc(C(F)F)c3)c2cc1OCC1(CN(C)C(=O)CCCCCCNc2cccc3c2C(=O)N(C2CCC(=O)NC2=O)C3=O)CC1 (stereo partly specified) | DC50 ([2]; read-out: DC50): 45 nM
102 | CNCC1(COc2cc3c(N[C@H](C)c4cc(N)cc(C(F)(F)F)c4)nc(C)nc3cc2OC)CC1 | IC50 [3]: 10 nM
51 | COc1cc2nc(C)nc(N[C@H](C)c3cc(N)cc(C(F)(F)F)c3)c2cc1OCC1(CN(C)C(=O)C2CCN(C3CCC(Nc4cccc5c4C(=O)N(C4CCC(=O)NC4=O)C5=O)CC3)CC2)CC1 (stereo partly specified) | DC50 ([2]; read-out: DC50): 55 nM
70 | COc1cc2nc(C)nc(N[C@H](C)c3cc(N)cc(C(F)(F)F)c3)c2cc1OCC1(CN(C)C(=O)CCCOCCNc2cccc3c2C(=O)N(C2CCC(=O)NC2=O)C3=O)CC1 (stereo partly specified) | 
15 | COc1cc2nc(C)nc(N[C@H](C)c3cc(N)cc(C(F)(F)F)c3)c2cc1OCC1(CN(C)C(=O)CCCOC2CCC(Nc3cccc4c3C(=O)N(C3CCC(=O)NC3=O)C4=O)CC2)CC1 (stereo partly specified) | DC50 ([2]; read-out: DC50): 35 nM
26 | COc1cc2nc(C)nc(N[C@H](C)c3cc(N)cc(C(F)(F)F)c3)c2cc1O[C@H]1CCOC1 | Activity [4]: Non-Toxic; IC50 [5]: 24 nM; IC50 [6]: 102 nM; IC50 [7]: 17 nM; IC50 [8]: 26 nM; inhibition in vivo at 30 mg/kg [9]: 39.4%; IC50 [10]: 68 nM
814 | COc1cc2nc(C)nc(N[C@H](C)c3cc(N)cc(C(F)(F)F)c3)c2cc1OCC1(CN(C)C(=O)CN2CCC(OC3CCN(c4ccc5c(c4)C(=O)N(C4CCC(=O)NC4=O)C5=O)CC3)CC2)CC1 (stereo partly specified) | 
47 | COc1cc2nc(C)nc(N[C@H](C)c3cc(N)cc(C(F)(F)F)c3)c2cc1OCC1(CN(C)C(=O)CCCCCCNc2cccc3c2CN(C2CCC(=O)NC2=O)C3=O)CC1 (stereo partly specified) | DC50 ([2]; read-out: DC50): 151 nM
318 | COc1cc2nc(C)nc(N[C@H](C)c3cc(N)cc(C(F)(F)F)c3)c2cc1OCC1(CN(C)C(=O)CCCCCCNc2nccc3c2C(=O)N(C2CCC(=O)NC2=O)C3=O)CC1 (stereo partly specified) | 
216 | COc1cc2nc(C)nc(N[C@H](C)c3cccc(C(F)F)c3F)c2cc1OCC1(CN(C)C(=O)CCCCCCNc2cccc3c2C(=O)N(C2CCC(=O)NC2=O)C3=O)CC1 (stereo partly specified) | DC50 ([2]; read-out: DC50): 540 nM
63 | COc1cc2nc(C)nc(N[C@H](C)c3cc(N)cc(C(F)(F)F)c3)c2cc1OCC1(CN(C)C(=O)CCCCCCNc2c(F)ccc3c2C(=O)N(C2CCC(=O)NC2=O)C3=O)CC1 (stereo partly specified) | 
421 | COc1cc2nc(C)nc(N[C@H](C)c3cc(N)cc(C(F)(F)F)c3)c2cc1OCC1(CN(C)C(=O)CCOCCOCCNc2cccc3c2C(=O)N(C2CCC(=O)NC2=O)C3=O)CC1 (stereo partly specified) | 
84 | COc1cc2nc(C)nc(N[C@H](C)c3cc(N)cc(C(F)(F)F)c3)c2cc1OCC1(CN(C)C(=O)C2CCN(C(=O)C3CCN(c4ccc5c(c4)C(=O)N(C4CCC(=O)NC4=O)C5=O)CC3)CC2)CC1 (stereo partly specified) | 
928 | COc1cc2nc(C)nc(N[C@H](C)c3cc(N)cc(C(F)(F)F)c3)c2cc1OCC1(CN(C)C(=O)CN2CCN(C3CCN(c4ccc5c(c4)C(=O)N(C4CCC(=O)NC4=O)C5=O)CC3)CC2)CC1 (stereo partly specified) | 
